Consider one compound from patent publication US20240002379A1, “ASYMMETRIC CONJUGATE COMPOUNDS” (Pheon Therapeutics Ltd., priority 2016, published 2024).

Each structure is given as a SMILES string.

The test system of the assay is linear double-stranded 32P-end-labelled TyrT DNA fragment. Nature of the assay: DNA interstrand cross-linking assay, denaturing polyacrylamide gel. The class given is biochemical. Particulars: overnight incubation at 37° C., 10 concentrations tested, assay repeated twice. The method, then: The ability of 13 to cross-link DNA was determined using an assay involving a linear double-stranded TyrT fragment (FIG. 8).
Following denaturation conditions (treatment with formamide and heating at 65° C. for 5 min) the DNA strands were completely separated (see controls C2 and C4, FIG. 9). The presence of an interstrand cross-link holds the denatured strands in close proximity, and cross-linked adducts therefore run as double-stranded DNA on polyacrylamide gel.
The preparation of the TyrT DNA fragment (FIG. 8) and HexARev DNA fragment (FIG. 15) have been previously described (34). Briefly, the sequence which had been cloned into the BamHI site of pUC18 was obtained by cutting with HindIII and EcoRI. Radiolabelled DNA fragments were prepared by filling in the 3′-end of the HindIII site with [α-^32P]dATP using Klenow DNA polymerase (exo-).
The radiolabelled DNA fragment was separated from the remainder of the plasmid DNA on a 6% non-denaturing polyacrylamide gel. The gel (20 cm long, 0.3 mm thick) was run at 400 V in 1×TBE running buffer for about 1-2 h, until the bromophenol blue had run most of the way down the gel. The glass plates were separated and the position of the labelled DNA fragment was established by short (1 min) exposure to an X-ray film. […]

In the case of `COc1cc2c(cc1OCCCC(=O)N1C[C@@H](CCl)c3c1cc(O)c1ccccc31)N=C[C@@H]1CCCCN1C2=O` [Compound 13, (S)-3-(4-((S)-1-(Chloromethyl)-5-hydroxy-1,2-dihydro-3H-benzo[e]indol-3-yl)-4-oxobutoxy)-2-methoxy-7,8,9,10-tetrahydrobenzo[e]-pyrido[1,2-a][1,4]diazepin-12(6aH)-one], the “lowest concentration at which DNA cross-links are visible” value stood at 10 nM.
